Measured values published in ChEMBL document CHEMBL4007427, “Inhibition of the Aldehyde Dehydrogenase 1/2 Family by Psoralen and Coumarin Derivatives” (J Med Chem, 2017).

Experiments:
[1] = target: T1, Aldehyde dehydrogenase, mitochondrial (Homo sapiens, UniProt P05091)
T1 sequence (P05091 whole entry): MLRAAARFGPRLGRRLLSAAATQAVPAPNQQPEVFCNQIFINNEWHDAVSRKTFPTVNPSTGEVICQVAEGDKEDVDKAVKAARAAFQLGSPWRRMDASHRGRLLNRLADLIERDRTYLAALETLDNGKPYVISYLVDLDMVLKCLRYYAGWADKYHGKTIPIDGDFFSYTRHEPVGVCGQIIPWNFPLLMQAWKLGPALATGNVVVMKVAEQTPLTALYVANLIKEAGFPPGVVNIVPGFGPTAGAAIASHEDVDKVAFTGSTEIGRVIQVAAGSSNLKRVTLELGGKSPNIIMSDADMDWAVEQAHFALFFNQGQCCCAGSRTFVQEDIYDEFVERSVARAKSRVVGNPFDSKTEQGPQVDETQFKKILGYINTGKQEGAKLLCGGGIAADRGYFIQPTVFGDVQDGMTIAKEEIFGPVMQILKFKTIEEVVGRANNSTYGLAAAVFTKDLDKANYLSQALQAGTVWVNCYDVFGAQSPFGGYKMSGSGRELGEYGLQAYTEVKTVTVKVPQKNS
Description: Inhibition of full length recombinant human ALDH2 expressed in Escherichia coli assessed as reduction in dehydrogenase activity by measuring NAD(P)H level preincubated for 2 mins followed by addition of propionaldehyde as substrate in presence of NAD+ by spectrophotometric method

[2] = target: T1, Aldehyde dehydrogenase, mitochondrial; remark: listed apart in the source
Description: Competitive inhibition of full length recombinant human ALDH2 expressed in Escherichia coli assessed as reduction in dehydrogenase activity using propionaldehyde as substrate in presence of varying levels NAD+ by Lineweaver-Burk plot analysis

[3] = target: T2, Retinaldehyde dehydrogenase 3 (Homo sapiens, UniProt P47895)
T2 sequence (P47895 whole entry): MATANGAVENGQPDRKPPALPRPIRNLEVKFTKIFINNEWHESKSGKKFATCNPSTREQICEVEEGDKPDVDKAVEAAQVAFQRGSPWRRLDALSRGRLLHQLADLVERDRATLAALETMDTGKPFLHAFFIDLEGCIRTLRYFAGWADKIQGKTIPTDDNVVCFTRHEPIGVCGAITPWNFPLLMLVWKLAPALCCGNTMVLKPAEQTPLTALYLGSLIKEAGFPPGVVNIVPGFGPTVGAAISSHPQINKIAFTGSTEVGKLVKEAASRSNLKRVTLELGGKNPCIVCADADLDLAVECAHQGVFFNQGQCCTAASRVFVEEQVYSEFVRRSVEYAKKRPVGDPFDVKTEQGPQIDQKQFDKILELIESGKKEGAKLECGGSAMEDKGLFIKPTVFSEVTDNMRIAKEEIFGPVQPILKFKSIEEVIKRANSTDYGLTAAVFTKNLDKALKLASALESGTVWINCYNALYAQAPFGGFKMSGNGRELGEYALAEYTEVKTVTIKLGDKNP
Description: Inhibition of full length recombinant human ALDH1A3 expressed in Escherichia coli BL21(DE3) assessed as reduction in dehydrogenase activity by measuring NAD(P)H level preincubated for 2 mins followed by addition of propionaldehyde as substrate in presence of NAD+ by spectrophotometric method

[4] = target: T3, Aldehyde dehydrogenase 1A1 (Homo sapiens, UniProt P00352)
T3 sequence (P00352 whole entry): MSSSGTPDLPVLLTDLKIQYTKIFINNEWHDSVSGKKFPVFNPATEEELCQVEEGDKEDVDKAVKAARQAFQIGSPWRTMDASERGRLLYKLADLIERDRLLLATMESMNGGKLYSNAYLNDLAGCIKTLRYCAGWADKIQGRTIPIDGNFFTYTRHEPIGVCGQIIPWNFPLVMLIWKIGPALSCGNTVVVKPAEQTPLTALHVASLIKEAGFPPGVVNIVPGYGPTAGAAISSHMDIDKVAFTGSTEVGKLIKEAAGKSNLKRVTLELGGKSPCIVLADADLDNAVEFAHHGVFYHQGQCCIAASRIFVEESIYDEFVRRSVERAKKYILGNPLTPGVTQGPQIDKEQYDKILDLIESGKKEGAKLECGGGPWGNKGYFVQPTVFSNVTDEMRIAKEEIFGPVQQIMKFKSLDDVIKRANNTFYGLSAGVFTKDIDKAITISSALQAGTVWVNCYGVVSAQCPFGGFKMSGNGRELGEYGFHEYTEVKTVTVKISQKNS
Description: (§2) Inhibition of full length recombinant human ALDH1A1 expressed in Escherichia coli BL21(DE3) assessed as reduction in dehydrogenase activity by measuring NAD(P)H level preincubated for 2 mins followed by addition of propionaldehyde as substrate in presence of NAD+ by spectrophotometric method

[5] = target: T3, Aldehyde dehydrogenase 1A1; remark: listed apart in the source
Description: as §2

[6] = target: T4, Cytosolic 10-formyltetrahydrofolate dehydrogenase (Rattus norvegicus, UniProt P28037); test: Inhibition of rat ALDH1L1 assessed as reduction in dehydrogenase activity by measuring NAD(P)H level preincubated for 2 mins followed by addition of propionaldehyde as substrate in presence of NAD+ by spectrophotometric method
T4 sequence (P28037 whole entry): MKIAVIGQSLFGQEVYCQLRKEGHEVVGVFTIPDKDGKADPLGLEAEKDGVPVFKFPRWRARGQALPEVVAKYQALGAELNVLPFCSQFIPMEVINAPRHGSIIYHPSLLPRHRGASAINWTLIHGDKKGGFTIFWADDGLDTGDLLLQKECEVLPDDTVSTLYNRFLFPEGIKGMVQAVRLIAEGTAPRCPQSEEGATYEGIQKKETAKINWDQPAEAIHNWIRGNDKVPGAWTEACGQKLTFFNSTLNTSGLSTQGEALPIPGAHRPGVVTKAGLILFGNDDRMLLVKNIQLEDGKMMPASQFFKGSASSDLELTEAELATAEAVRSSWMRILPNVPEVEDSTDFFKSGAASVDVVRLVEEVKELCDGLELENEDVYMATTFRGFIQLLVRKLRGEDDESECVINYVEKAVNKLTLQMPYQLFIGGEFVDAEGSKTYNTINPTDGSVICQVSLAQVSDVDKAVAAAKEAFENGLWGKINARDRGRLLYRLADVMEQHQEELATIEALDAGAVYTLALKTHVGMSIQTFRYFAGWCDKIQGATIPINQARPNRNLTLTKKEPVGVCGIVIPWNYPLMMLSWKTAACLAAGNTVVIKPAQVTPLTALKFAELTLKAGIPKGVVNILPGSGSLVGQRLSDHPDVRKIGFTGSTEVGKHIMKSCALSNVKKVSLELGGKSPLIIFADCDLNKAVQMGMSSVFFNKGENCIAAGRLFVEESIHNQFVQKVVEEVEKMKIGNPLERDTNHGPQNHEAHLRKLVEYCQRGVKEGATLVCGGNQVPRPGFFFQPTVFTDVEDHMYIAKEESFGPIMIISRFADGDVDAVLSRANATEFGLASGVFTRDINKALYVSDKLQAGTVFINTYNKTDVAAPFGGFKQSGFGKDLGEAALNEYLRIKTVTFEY

[7] = target: T5, Retinaldehyde dehydrogenase 3 (Homo sapiens) (UniProt P47895); test: (§1) Activation of full length recombinant human ALDH1A3 expressed in Escherichia coli BL21(DE3) preincubated for 2 mins followed by addition of propionaldehyde as substrate in presence of NAD+ by spectrophotometric method relative to control
T5 sequence (whole entry): T2 sequence (P47895 whole entry)

[8] = target: T6, Aldehyde dehydrogenase 1A1 (Homo sapiens) (UniProt P00352); test: as §1, with “Inhibition” for “Activation”, “ALDH1A1” for “ALDH1A3”, “BL21(DE3) assessed as reduction in dehydrogenase activity by measuring NAD(P)H level” for “BL21(DE3)”
T6 sequence (whole entry): T3 sequence (P00352 whole entry)

`Cc1oc2cc3oc(=O)c(CCC(=O)N4CCCCC4)c(C)c3cc2c1C` showed an IC50 [1] of 2000 nM, a Ki [2] of 1100 nM and an IC50 [3] of 14000 nM. The IC50 [4] was 130 nM.
With `Cc1oc2cc3oc(=O)c(C)c(C)c3cc2c1C` the IC50 [5] was “Not Active”, the IC50 [6] was “Not Active” and the IC50 [3] was 270 nM.
`CCCc1cc(=O)oc2cc3oc(C)c(C)c3cc12` was tested, and the IC50 [1] was 360 nM, the IC50 [5] was “Not Active” and the %max [7] was 200%.
In the case of `CCCc1c(C)c2cc3c(C)coc3cc2oc1=O`, the IC50 [1] is reported as 340 nM, the Imax [8] is reported as 60% and the IC50 [6] is reported as “Not Active”. It also gave an IC50 [3] of 1100 nM and an IC50 [4] of 340 nM.
For `C/C(=N\O)c1cc2cc(Br)ccc2oc1=O`, the IC50 [1] was 4600 nM, the Ki [2] was 2400 nM and the IC50 [5] was “Not Active”. The %max [7] was 200%.
`CCCc1c(C)c2cc3c(C)c(C)oc3cc2oc1=O` was tested, and the IC50 [1] was 110 nM, the Ki [2] was 19 nM and the IC50 [6] was “Not Active”. The IC50 [3] was 400 nM and the IC50 [4] was 220 nM.
Work on `Cc1oc2cc3oc(=O)c4c(c3cc2c1C)CCC4` yielded an IC50 [1] of 67 nM, an Imax [8] of 50 to 60% and an IC50 [3] of 170 nM. It also gave an IC50 [4] of 170 nM.
`COC(=O)C(C)Oc1ccc2c(C)cc(=O)oc2c1` (configuration not stated) was tested, and the IC50 [1] was 1500 nM, the Ki [2] was 310 nM and the IC50 [5] was “Not Active”. For the same compound, the IC50 [6] was “Not Active”.
